In patent US7381724B2, “Optically active 5H-pyrrolo[3,4-b]pyrazine derivative, its preparation and pharmaceutical compositions containing same” (Sepracor Inc., priority 1991, dated 2008):

Key:
[1] = acute oral toxicity (LD50) in mice; details: mouse, in vivo, po
mice = assay: acute oral toxicity (LD50) in mice; details: for toxicity compared with the racemate: relative to racemic zopiclone
[2] = test system: central benzodiazepine receptor sites; assay: test of affinity for central benzodiazepine receptor sites; type: binding; details: relative to racemic zopiclone; technique of Blanchard and Julou
[3] = test system: pentetrazol-induced convulsions; assay: test of antagonist activity with respect to pentetrazol-induced convulsions; type: in vivo; details: relative to racemic zopiclone; technique of Everett and Richards
animals = assay: pharmacological properties in animals; type: in vivo
writhing reflex = writhing reflex test in mice; type: in vivo; details: relative to racemic zopiclone, technique of Zbinden and Randall

Structure (SMILES) | LD50 [1] [mg/kg] | toxicity (LD50) (mice; administered orally to mice) [mg/kg] | toxicity compared with the racemate (mice) | potency of action, affinity for central benzodiazepine receptor sites [2] | potency of action, antagonist activity with respect to pentetrazol-induced convulsions [3] | properties displayed in animals (animals) | potency of action, writhing reflex test (writhing reflex)
CN1CCN(C(=O)OC2c3nccnc3C(=O)N2c2ccc(Cl)cn2)CC1 (racemic) [zopiclone, 6-(5-chloro-2-pyridyl)-5-[(4-methyl-1-piperazinyl)carbonyloxy]-7-oxo-6,7-dihydro-5H-pyrrolo[3,4-b]pyrazine, reference compound] | ~850 |  |  |  |  |  | 
CN1CCN(C(=O)O[C@H]2c3nccnc3C(=O)N2c2ccc(Cl)cn2)CC1 (single isomer, unassigned) [dextrorotatory isomer] |  | ~1500 | lower toxicity than that of the racemate | approximately twice as active | approximately twice as active | hypnotic, sedative, anxiolytic, muscle-relaxant and anticonvulsant properties | approximately twice as active
CN1CCN(C(=O)O[C@@H]2c3nccnc3C(=O)N2c2ccc(Cl)cn2)CC1 (single isomer, unassigned) [laevorotatory isomer, reference compound] |  |  | more toxic than the racemate | almost inactive | almost inactive |  | almost inactive
